Experimental data from US11945768B1, “8-(3-flurobenzylideneamino)naphthalene-1,3-disulfonic acid as an antioxidant compound” (KING FAISAL UNIVERSITY, priority 2023, dated 2024).

Test: DPPH radical scavenging antioxidant test (in vitro)
Type: biochemical
Conditions: 517 nm; for Inhibition (radical scavenging inhibition): 0.2 mL DPPH (0.75 mM), compound 3 μM in ethanol, 30 minutes incubation in the dark
Experimental: The antioxidant properties of the 8-(3-flurobenzylideneamino)naphthalene-1,3-disulfonic acid compound were studied by adding 0.2 mL DPPH (0.75 mM)) 8-(3-flurobenzylideneamino)naphthalene-1,3-disulfonic acid (III) (3 μM) in ethanol. After 30 minutes of incubation in the dark, the absorbance was read against a blank at 517 nm. Ascorbic acid (vitamin C) was used as standard antioxidants (positive control). A blank sample was prepared by 0.2 ml of DPPH in 3 mL ethanol. A negative control sample was run using ethanol instead of the sample. The radical scavenging inhibition was calculated using the following equation: […]
The antioxidant activity for the synthesized compound is listed in Table 1, using Vitamin C as a reference.

| Compound | Inhibition (radical scavenging inhibition) [%] | antioxidant potential in DPPH test compared to vitamin C (in words) (DPPH in vitro test, vitamin C as positive control) |
| --- | --- | --- |
| O=S(=O)(O)c1cc(S(=O)(=O)O)c2c(/N=C/c3cccc(F)c3)cccc2c1 [Product III, 8-(3-flurobenzylideneamino)naphthalene-1,3-disulfonic acid] | 52 | high potential as an antioxidant compared to vitamin C |
| O=C1O[C@H]([C@@H](O)CO)C(O)=C1O [vit c, Ascorbic acid, reference compound] | 74 | – |
